Experimental data published in patent US6423689B1, “Peptidyl calcium channel blockers” (Warner-Lambert Company, priority 1997, dated 2002).

Molecular target: T1, N-type Ca2+ channels in IMR-32 cells (Homo sapiens, UniProt Q00975)
T1 construct: host or cells: IMR-32 cells, differentiated with dibutyryl cAMP and bromodeoxyuridine
Assay: Inhibition of N-type calcium flux in IMR-32 cells (Indo-1 fluorescence, nitrendipine present)
Type: cell-based
Conditions: for IC50: IMR-32 cells, 5 μM nitrendipine, K+ depolarization; for inhibition at 1 µM / inhibition at 10 µM: IMR-32
Method in brief: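 Differentiated IMR-32 cells (7–13 days) were loaded with 5 μM Indo-1 AM, preincubated with compound for 10 min at 30° C, and depolarized with KCl/CaCl2 stimulation solution, with 5 μM nitrendipine blocking L-channels. Peak-minus-basal 400/490 nm emission ratio was plotted against drug concentration, and IC50 came from four-parameter logistic fits.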

T1 sequence (Q00975 whole entry): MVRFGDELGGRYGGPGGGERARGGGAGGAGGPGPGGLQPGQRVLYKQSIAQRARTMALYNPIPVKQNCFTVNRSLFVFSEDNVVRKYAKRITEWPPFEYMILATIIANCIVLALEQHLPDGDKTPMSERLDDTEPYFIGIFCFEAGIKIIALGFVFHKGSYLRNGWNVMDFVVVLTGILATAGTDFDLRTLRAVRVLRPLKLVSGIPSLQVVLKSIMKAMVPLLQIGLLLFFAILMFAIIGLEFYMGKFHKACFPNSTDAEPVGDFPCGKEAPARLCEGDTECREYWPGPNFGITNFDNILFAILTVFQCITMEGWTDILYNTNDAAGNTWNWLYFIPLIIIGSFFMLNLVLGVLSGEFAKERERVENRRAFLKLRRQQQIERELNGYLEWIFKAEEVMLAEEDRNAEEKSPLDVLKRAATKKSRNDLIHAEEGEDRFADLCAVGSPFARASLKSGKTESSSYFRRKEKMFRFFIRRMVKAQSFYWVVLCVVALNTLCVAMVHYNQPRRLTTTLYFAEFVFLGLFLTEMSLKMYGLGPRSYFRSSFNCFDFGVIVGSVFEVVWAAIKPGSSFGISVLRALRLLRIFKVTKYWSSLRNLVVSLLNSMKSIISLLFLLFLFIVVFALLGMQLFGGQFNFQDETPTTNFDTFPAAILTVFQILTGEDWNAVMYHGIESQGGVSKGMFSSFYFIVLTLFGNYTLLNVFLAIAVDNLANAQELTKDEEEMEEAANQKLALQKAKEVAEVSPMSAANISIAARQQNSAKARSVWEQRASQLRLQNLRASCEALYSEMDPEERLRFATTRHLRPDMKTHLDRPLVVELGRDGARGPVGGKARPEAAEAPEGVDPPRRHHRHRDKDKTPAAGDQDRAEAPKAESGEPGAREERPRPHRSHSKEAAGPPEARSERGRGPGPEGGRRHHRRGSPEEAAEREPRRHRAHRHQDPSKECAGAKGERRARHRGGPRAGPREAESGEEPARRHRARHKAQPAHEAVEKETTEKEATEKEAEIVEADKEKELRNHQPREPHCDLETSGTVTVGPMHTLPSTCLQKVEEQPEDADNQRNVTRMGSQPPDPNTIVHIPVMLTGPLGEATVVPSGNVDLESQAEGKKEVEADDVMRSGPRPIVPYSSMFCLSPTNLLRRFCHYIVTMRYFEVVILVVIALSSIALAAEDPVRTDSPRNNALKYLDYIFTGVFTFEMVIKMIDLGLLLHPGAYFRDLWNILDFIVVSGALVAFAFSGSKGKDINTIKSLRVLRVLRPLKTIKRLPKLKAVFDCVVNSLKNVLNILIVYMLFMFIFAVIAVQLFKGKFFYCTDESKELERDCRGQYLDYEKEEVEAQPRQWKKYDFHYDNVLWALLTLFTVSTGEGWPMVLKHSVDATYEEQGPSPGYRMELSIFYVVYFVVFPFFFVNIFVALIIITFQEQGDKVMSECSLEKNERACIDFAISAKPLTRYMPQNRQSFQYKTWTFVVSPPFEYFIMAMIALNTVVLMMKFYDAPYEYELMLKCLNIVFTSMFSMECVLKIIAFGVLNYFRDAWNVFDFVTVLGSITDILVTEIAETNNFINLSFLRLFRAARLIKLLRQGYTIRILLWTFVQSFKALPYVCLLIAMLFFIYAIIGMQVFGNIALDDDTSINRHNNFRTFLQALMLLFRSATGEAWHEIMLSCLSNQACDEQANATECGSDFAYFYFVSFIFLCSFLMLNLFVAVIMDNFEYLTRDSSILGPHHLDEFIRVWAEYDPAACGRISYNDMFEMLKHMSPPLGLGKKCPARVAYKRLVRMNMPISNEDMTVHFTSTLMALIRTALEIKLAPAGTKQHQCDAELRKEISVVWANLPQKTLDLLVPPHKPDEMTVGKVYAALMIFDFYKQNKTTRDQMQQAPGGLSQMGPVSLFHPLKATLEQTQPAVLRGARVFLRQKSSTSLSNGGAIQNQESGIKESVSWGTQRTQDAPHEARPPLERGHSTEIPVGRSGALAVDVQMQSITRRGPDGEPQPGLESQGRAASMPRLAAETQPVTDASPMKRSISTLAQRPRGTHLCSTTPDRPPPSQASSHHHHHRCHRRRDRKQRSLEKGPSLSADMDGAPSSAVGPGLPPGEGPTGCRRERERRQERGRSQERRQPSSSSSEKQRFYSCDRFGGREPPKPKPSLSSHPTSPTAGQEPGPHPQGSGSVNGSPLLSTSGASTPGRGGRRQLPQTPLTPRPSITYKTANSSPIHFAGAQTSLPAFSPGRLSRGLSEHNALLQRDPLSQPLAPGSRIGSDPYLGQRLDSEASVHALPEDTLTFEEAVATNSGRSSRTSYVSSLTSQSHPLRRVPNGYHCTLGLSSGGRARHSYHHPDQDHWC
T1 sequence (P54289 25-956 partner limits assumed): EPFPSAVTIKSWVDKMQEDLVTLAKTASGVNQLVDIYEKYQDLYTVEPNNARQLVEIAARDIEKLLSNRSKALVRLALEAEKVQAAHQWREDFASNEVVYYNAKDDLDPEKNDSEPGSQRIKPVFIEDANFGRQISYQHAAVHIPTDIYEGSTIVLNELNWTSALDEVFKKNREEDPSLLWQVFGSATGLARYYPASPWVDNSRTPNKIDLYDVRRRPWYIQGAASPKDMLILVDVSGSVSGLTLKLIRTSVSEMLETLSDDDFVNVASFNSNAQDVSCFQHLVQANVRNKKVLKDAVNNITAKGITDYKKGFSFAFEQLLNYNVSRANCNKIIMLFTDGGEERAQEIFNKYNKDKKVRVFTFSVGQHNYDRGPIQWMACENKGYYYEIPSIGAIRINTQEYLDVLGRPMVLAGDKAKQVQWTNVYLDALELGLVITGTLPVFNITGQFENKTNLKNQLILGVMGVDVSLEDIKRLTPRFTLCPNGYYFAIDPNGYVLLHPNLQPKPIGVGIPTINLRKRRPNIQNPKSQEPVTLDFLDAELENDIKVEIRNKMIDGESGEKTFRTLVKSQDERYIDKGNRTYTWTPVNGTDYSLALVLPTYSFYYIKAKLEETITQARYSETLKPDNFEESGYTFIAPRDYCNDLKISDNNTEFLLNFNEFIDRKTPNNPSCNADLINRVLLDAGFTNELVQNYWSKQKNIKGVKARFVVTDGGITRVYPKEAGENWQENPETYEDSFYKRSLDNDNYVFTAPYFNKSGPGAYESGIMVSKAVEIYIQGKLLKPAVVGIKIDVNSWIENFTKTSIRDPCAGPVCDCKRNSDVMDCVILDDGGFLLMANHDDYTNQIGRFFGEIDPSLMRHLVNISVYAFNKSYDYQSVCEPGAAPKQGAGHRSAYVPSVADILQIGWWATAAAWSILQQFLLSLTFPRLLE
T1 sequence (P54289 957-1103 partner limits assumed): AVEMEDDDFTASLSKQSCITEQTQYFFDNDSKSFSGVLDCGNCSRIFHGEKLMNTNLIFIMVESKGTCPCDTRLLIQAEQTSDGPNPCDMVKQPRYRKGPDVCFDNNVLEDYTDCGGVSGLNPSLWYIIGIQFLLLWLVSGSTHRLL
T1 sequence (P54284 whole entry partner): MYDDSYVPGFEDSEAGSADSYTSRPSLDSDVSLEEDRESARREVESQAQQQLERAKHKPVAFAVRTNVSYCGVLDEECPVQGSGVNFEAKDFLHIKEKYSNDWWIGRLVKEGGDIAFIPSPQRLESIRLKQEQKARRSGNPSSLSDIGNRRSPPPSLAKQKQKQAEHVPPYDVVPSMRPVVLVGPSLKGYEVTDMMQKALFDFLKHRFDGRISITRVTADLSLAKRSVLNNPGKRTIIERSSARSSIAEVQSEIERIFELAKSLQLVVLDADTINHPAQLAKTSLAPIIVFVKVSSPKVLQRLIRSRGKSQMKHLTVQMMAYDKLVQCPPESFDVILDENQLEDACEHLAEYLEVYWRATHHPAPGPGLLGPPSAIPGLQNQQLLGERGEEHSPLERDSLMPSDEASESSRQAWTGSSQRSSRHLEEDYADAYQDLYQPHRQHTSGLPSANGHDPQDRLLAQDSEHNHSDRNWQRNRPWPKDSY

SMILES | Inhibition of Calcium Flux in IMR-32 Cells % Inhibition at 1 μM [%] | Inhibition of Calcium Flux in IMR-32 Cells % Inhibition at 10 μM [%] | IC50 [nM] | further results
COc1ccc(C(=O)N[C@@H](CC(C)C)C(=O)N[C@@H](Cc2ccc(OCc3ccccc3)cc2)C(=O)OC(C)(C)C)cc1 (relative stereo) [Example 95, [S-(R*,R*)]-3-(4-Benzyloxy-phenyl)-2-[2-(4-methoxy-benzoylamino)-4-methyl-pentanoylamino]-propionic acid tert-butyl ester] | 27 | – | – | –
CC(C)C[C@H](NC(=O)C(C)C)C(=O)N[C@@H](Cc1ccc(OCc2ccccc2)cc1)C(=O)OC(C)(C)C (relative stereo) [Example 115, [S-(R*,R*)]-3-(4-Benzyloxy-phenyl)-2-(2-isobutyrylamino-4-methyl-pentanoylamino)-propionic acid tert-butyl ester] | – | 71 | – | –
O=C(NCCN1CCCCC1)[C@H](Cc1ccc(OCc2ccccc2)cc1)NC(=O)[C@@H]1CCCN1C(=O)N1CCCCCC1 [Example 152, [S-(R*,R*)]-1-(Azepane-1-carbonyl)-pyrrolidine-2-carboxylic acid [2-(4-benzyloxy-phenyl)-1-(2-piperidin-1-yl-ethylcarbamoyl)-ethyl]-amide] | – | – | 1900 | –
CC(C)C[C@H](NC(=O)Nc1cccc(C(F)(F)F)c1)C(=O)N[C@@H](Cc1ccc(OCc2ccccc2)cc1)C(=O)OC(C)(C)C (relative stereo) [Example 76, [S-(R*,R*)]-3-(4-Benzyloxy-phenyl)-2-{4-methyl-2-[3-(3-trifluoromethyl-phenyl)-ureido]-pentanoylamino}-propionic acid tert-butyl ester] | 27 | – | – | –
Cc1ccccc1NC(=O)N[C@@H](CC(C)C)C(=O)N[C@@H](Cc1ccc(OCc2ccccc2)cc1)C(=O)OC(C)(C)C (relative stereo) [Example 61, [S-(R*,R*)]-3-(4-Benzyloxy-phenyl)-2-[4-methyl-2-(3-o-tolyl-ureido)-pentanoylamino]-propionic acid tert-butyl ester] | 34 | – | – | –
O=C(NCCN1CCCCC1)[C@H](Cc1ccc(OCc2ccccc2)cc1)NC(=O)[C@H](Cc1ccc(O)cc1)NC(=O)N1CCCCCC1 [Example 156, [S-(R*,R*)]-Azepane-1-carboxylic acid [1-[2-(4-benzyloxy-phenyl)-1-(2-piperidin-1-ylethylcarbamoyl)-ethylcarbamoyl]-2-(4-hydroxy-phenyl)-ethyl]-amide] | – | – | 5300 | –
O=C(NCCN1CCCCC1)[C@H](Cc1ccc(OCc2ccccc2)cc1)NC(=O)[C@H](Cc1ccc(Br)cc1)NC(=O)N1CCCCCC1 [Example 157, [S-(R*,R*)]-Azepane-1-carboxylic acid [1-[2-(4-benzyloxy-phenyl)-1-(2-piperidin-1-ylethylcarbamoyl)-ethylcarbamoyl]-2-(4-bromo-phenyl)-ethyl]-amide] | – | – | 2300 | –
COc1ccc(S(=O)(=O)N[C@@H](CC(C)C)C(=O)N[C@@H](Cc2ccc(OCc3ccccc3)cc2)C(=O)OC(C)(C)C)cc1 (relative stereo) [Example 103, [S-(R*,R*)]-3-(4-Benzyloxy-phenyl)-2-[2-(4-methoxy-benzenesulfonylamino)-4-methyl-pentanoylamino]-propionic acid tert-butyl ester] | 28 | – | – | –
CC(C)C[C@H](NC(=O)c1cnc2ccccc2n1)C(=O)N[C@@H](Cc1ccc(OCc2ccccc2)cc1)C(=O)OC(C)(C)C (relative stereo) [Example 126, [S-(R*,R*)]-3-(4-Benzyloxy-phenyl)-2-{4-methyl-2-[(quinoxaline-2-carbonyl)-amino]pentanoylamino}-propionic acid tert-butyl ester] | – | 28 | – | –
CC(C)C[C@H](NC(=O)N1CCCCCC1)C(=O)N[C@@H](Cc1ccc(OCc2ccccc2)cc1)C(=O)N(CCO)Cc1ccccc1 [Example 251, S-(R*,R*)]-Azepane-1-carboxylic acid {1-[1-[benzyl-(2-hydroxy-ethyl)-carbamoyl]-2-(4-benzyloxy-phenyl)-ethylcarbamoyl]-3-methyl-butyl}-amide] | – | – | 740 | –
CCNC(=O)N[C@@H](CC(C)C)C(=O)N[C@@H](Cc1ccc(OCc2ccccc2)cc1)C(=O)OC(C)(C)C (relative stereo) [Example 89, [S-(R*,R*)]-3-(4-Benzyloxy-phenyl)-2-[2-(3-ethyl-ureido)-4-methyl-pentanoylamino]-propionic acid tert-butyl ester] | 30 | – | – | –
CC(C)C[C@H](NC(=O)N1CCCCCC1)C(=O)N[C@@H](Cc1ccc(OCc2ccccc2)cc1)C(=O)Nc1ccc(N(C)C)cc1 (relative stereo) [Example 215, [S-(R*,R*)]-Azepane-1-carboxylic acid {1-[2-(4-benzyloxy-phenyl)-1-(4-dimethylamino-phenylcarbamoyl)-ethylcarbamoyl]-3-methyl-butyl}-amide] | 35 | 44 | – | –
CC(C)[C@H](NC(=O)N1CCCCCC1)C(=O)N[C@@H](Cc1ccc(OCc2ccccc2)cc1)C(=O)OC(C)(C)C [Example 6, [S-(R*,R*)]-2-{2-[(Azepane-1-carbonyl)-amino]-3-methyl-butyrylamino}-3-(4-benzyloxy-phenyl)-propionic acid tert-butyl ester] | – | – | 720 | inhibition at 1 µM: 63%; inhibition at 10 µM: 98%
Cc1ccccc1S(=O)(=O)N[C@@H](CC(C)C)C(=O)N[C@@H](Cc1ccc(OCc2ccccc2)cc1)C(=O)OC(C)(C)C (relative stereo) [Example 105, [S-(R*,R*)]-3-(4-Benzyloxy-phenyl)-2-[4-methyl-2-(toluene-2-sulfonylamino)-pentanoylamino]-propionic acid tert-butyl ester] | 29 | – | – | –
CC(C)C[C@H](NC(=O)Cc1c[nH]c2ccccc12)C(=O)C[C@H](Cc1ccc(OCc2ccccc2)cc1)C(=O)OC(C)(C)C (relative stereo) [Example 113, [S-(R*,R*)]-2-(4-Benzyloxy-benzyl)-5-(2-1H-indol-3-yl-acetylamino)-7-methyl-4-oxo-octanoic acid tert-butyl ester] | – | 83 | – | –
COc1ccc(COc2ccc(C[C@H](NC(=O)[C@H](CC(C)C)NC(=O)N3CCCCCC3)C(=O)OC(C)(C)C)cc2)cc1 [Example 32, [S-(R*,R*)]-2-{2-[(Azepane-1-carbonyl)-amino]-4-methyl-pentanoylamino}-3-[4-(4-methoxy-benzyloxy)-phenyl]-propionic acid tert-butyl ester] | – | – | 820 | inhibition at 1 µM: 52%; inhibition at 10 µM: 86%
CC(=O)N[C@@H](CC(C)C)C(=O)N[C@@H](Cc1ccc(OCc2ccccc2)cc1)C(=O)OC(C)(C)C (relative stereo) [Example 116, [S-(R*,R*)]-2-(2-Acetylamino-4-methyl-pentanoylamino)-3-(4-benzyloxy-phenyl)-propionic acid tert-butyl ester] | – | 53 | – | –
CC(C)C[C@H](NC(=O)N1CCCCCC1)C(=O)N[C@@H](Cc1ccc(OCc2cccc(N)c2)cc1)C(=O)OC(C)(C)C (relative stereo) [Example 29, [S-(R*,R*)]-3-[4-(3-Amino-benzyloxy)-phenyl]-2-{2-[(azepane-1-carbonyl)-amino]-4-methyl-pentanoylamino}-propionic acid tert-butyl ester] | 43 | 87 | – | –
